According to ChEMBL document CHEMBL1759988, “Isatin-β-thiosemicarbazones as potent herpes simplex virus inhibitors” (Bioorg Med Chem Lett, 2011):

Assays:
[1] = Cytotoxicity against human RD cells; type: cell-based
Human alphaherpesvirus 1 = experiment: Antiviral activity against HSV1 by plaque reduction assay; type: functional, organism-based
Human alphaherpesvirus 2 = experiment: Antiviral activity against HSV2 by plaque reduction assay; type: functional, organism-based

Q: With `CCN(CC)C(=S)N/N=C1\C(=O)Nc2ccccc21` as the compound, how does the CC50 [1] read?
A: Its CC50 is over 25 µM.

Q: And the IC50 (Human alphaherpesvirus 1)?
A: The IC50 was over 25 µM.

Q: What about the IC50 (Human alphaherpesvirus 2) of the same compound?
A: Its IC50 is 1.54 µM.

Q: Which results are given for `O=C1Nc2ccccc2/C1=N/NC(=S)Nc1cccc(Cl)c1`?
A: CC50 [1]: > 25 µM; IC50 (Human alphaherpesvirus 1): > 25 µM; IC50 (Human alphaherpesvirus 2): > 25 µM

Q: With `COc1cccc(NC(=O)N/N=C2\C(=O)Nc3ccccc32)c1` as the compound, how does the CC50 [1] read?
A: Its CC50 is over 25 µM.

Q: What about the IC50 (Human alphaherpesvirus 1) of the same compound?
A: The IC50 was over 25 µM.

Q: What about the IC50 (Human alphaherpesvirus 2) of the same compound?
A: The IC50 was over 25 µM.

Q: For `COc1ccc(NC(=S)NNC2=c3ccccc3=NC2=O)cc1`, which CC50 [1] is on record?
A: The CC50 was over 25 µM.

Q: And the IC50 (Human alphaherpesvirus 1)?
A: The IC50 was 2.2 µM.

Q: What about the IC50 (Human alphaherpesvirus 2) of the same compound?
A: The IC50 was over 25 µM.

Q: Which CC50 [1] does the source give for `CN(C)C(=S)N/N=C1/C(=O)Nc2ccccc21` here?
A: Its CC50 is over 25 µM.

Q: What about the IC50 (Human alphaherpesvirus 1) of the same compound?
A: Its IC50 is over 25 µM.

Q: What about the IC50 (Human alphaherpesvirus 2) of the same compound?
A: Its IC50 is over 25 µM.

Q: Which CC50 [1] does the source give for `CN1C(=O)/C(=N\NC(=S)Nc2ccccc2)c2ccccc21` here?
A: Its CC50 is over 25 µM.

Q: And the IC50 (Human alphaherpesvirus 1)?
A: The IC50 was over 25 µM.

Q: What about the IC50 (Human alphaherpesvirus 2) of the same compound?
A: Its IC50 is over 25 µM.

Q: For `O=C1Nc2ccc(Cl)cc2/C1=N/NC(=S)Nc1ccccc1`, which CC50 [1] is on record?
A: The CC50 was over 25 µM.

Q: And the IC50 (Human alphaherpesvirus 1)?
A: The IC50 was over 25 µM.

Q: What about the IC50 (Human alphaherpesvirus 2) of the same compound?
A: Its IC50 is over 25 µM.

Q: Which results are given for `CCCN(CCC)C(=S)N/N=C1/C(=O)Nc2ccccc21`?
A: CC50 [1]: > 25 µM; IC50 (Human alphaherpesvirus 1): > 25 µM; IC50 (Human alphaherpesvirus 2): > 25 µM

Q: With `O=C1Nc2ccccc2/C1=N/NC(=S)Nc1ccc(F)cc1` as the compound, how does the CC50 [1] read?
A: Its CC50 is over 25 µM.

Q: And the IC50 (Human alphaherpesvirus 1)?
A: The IC50 was over 25 µM.

Q: What about the IC50 (Human alphaherpesvirus 2) of the same compound?
A: Its IC50 is over 25 µM.

Q: With `O=C1Nc2ccccc2/C1=N/NC(=S)Nc1ccccc1` as the compound, how does the CC50 [1] read?
A: The CC50 was over 25 µM.

Q: And the IC50 (Human alphaherpesvirus 1)?
A: The IC50 was 2.97 µM.

Q: What about the IC50 (Human alphaherpesvirus 2) of the same compound?
A: The IC50 was over 25 µM.

Q: Which CC50 [1] does the source give for `O=C1/C(=N\NC(=S)Nc2ccccc2)c2ccccc2N1Cc1ccccc1` here?
A: The CC50 was over 25 µM.

Q: And the IC50 (Human alphaherpesvirus 1)?
A: The IC50 was over 25 µM.

Q: What about the IC50 (Human alphaherpesvirus 2) of the same compound?
A: Its IC50 is over 25 µM.

Q: With `O=C1Nc2ccccc2/C1=N/NC(=S)N1CCOCC1` as the compound, how does the CC50 [1] read?
A: The CC50 was over 25 µM.

Q: What about the IC50 (Human alphaherpesvirus 1) of the same compound?
A: The IC50 was 1.3 µM.

Q: And the IC50 (Human alphaherpesvirus 2)?
A: Its IC50 is 2.74 µM.

Q: What does the source list for `O=C1Nc2ccccc2/C1=N/NC(=S)Nc1ccc(Cl)cc1`?
A: CC50 [1]: > 25 µM; IC50 (Human alphaherpesvirus 1): 2.69 µM; IC50 (Human alphaherpesvirus 2): > 25 µM

Q: Which CC50 [1] does the source give for `Nc1nc2c(ncn2COCCO)c(=O)[nH]1` [ACYCLOVIR] here?
A: Its CC50 is over 25 µM.

Q: What about the IC50 (Human alphaherpesvirus 1) of the same compound?
A: The IC50 was 0.3 µM.

Q: What about the IC50 (Human alphaherpesvirus 2) of the same compound?
A: Its IC50 is 1.27 µM.

Q: For `O=C1Nc2ccccc2/C1=N/NC(=S)N1CCCC1`, which CC50 [1] is on record?
A: Its CC50 is over 25 µM.

Q: And the IC50 (Human alphaherpesvirus 1)?
A: The IC50 was over 25 µM.

Q: What about the IC50 (Human alphaherpesvirus 2) of the same compound?
A: Its IC50 is 5.8 µM.

Q: What does the source list for `O=C1Nc2ccccc2/C1=N/NC(=S)Nc1ccccc1Cl`?
A: CC50 [1]: > 25 µM; IC50 (Human alphaherpesvirus 1): > 25 µM; IC50 (Human alphaherpesvirus 2): > 25 µM

Q: Which results are given for `CCNC(=S)N/N=C1\C(=O)Nc2ccccc21`?
A: CC50 [1]: > 25 µM; IC50 (Human alphaherpesvirus 1): > 25 µM; IC50 (Human alphaherpesvirus 2): > 25 µM

Q: For `Cc1cccc(NC(=O)N/N=C2\C(=O)Nc3ccccc32)c1`, which CC50 [1] is on record?
A: Its CC50 is over 25 µM.

Q: And the IC50 (Human alphaherpesvirus 1)?
A: Its IC50 is over 25 µM.

Q: And the IC50 (Human alphaherpesvirus 2)?
A: Its IC50 is over 25 µM.

Q: Which results are given for `CCN1C(=O)/C(=N\NC(=S)Nc2ccccc2)c2ccccc21`?
A: CC50 [1]: > 25 µM; IC50 (Human alphaherpesvirus 1): > 25 µM; IC50 (Human alphaherpesvirus 2): > 25 µM

Q: What does the source list for `Cc1ccc(NC(=O)N/N=C2\C(=O)Nc3ccccc32)cc1`?
A: CC50 [1]: > 25 µM; IC50 (Human alphaherpesvirus 1): > 25 µM; IC50 (Human alphaherpesvirus 2): > 25 µM

Q: What does the source list for `Cc1ccc2c(c1)/C(=N/NC(=S)Nc1ccccc1)C(=O)N2`?
A: CC50 [1]: > 25 µM; IC50 (Human alphaherpesvirus 1): > 25 µM; IC50 (Human alphaherpesvirus 2): > 25 µM

Q: For `O=C1Nc2ccccc2/C1=N/NC(=S)Nc1ccc(-n2cccn2)cc1`, which CC50 [1] is on record?
A: Its CC50 is over 25 µM.

Q: And the IC50 (Human alphaherpesvirus 1)?
A: Its IC50 is 6.21 µM.

Q: And the IC50 (Human alphaherpesvirus 2)?
A: Its IC50 is over 25 µM.

Q: For `COc1ccc2c(c1)/C(=N/NC(=S)Nc1ccccc1)C(=O)N2`, which CC50 [1] is on record?
A: The CC50 was over 25 µM.

Q: What about the IC50 (Human alphaherpesvirus 1) of the same compound?
A: The IC50 was 5.01 µM.

Q: And the IC50 (Human alphaherpesvirus 2)?
A: The IC50 was over 25 µM.

Q: With `Cc1cccc(NC(=S)NNC2=c3ccccc3=NC2=O)c1` as the compound, how does the CC50 [1] read?
A: Its CC50 is over 25 µM.

Q: And the IC50 (Human alphaherpesvirus 1)?
A: The IC50 was 3.84 µM.

Q: And the IC50 (Human alphaherpesvirus 2)?
A: The IC50 was over 25 µM.

Q: Which CC50 [1] does the source give for `O=C(N/N=C1\C(=O)Nc2ccccc21)Nc1ccccc1` here?
A: The CC50 was over 25 µM.

Q: What about the IC50 (Human alphaherpesvirus 1) of the same compound?
A: Its IC50 is over 25 µM.

Q: What about the IC50 (Human alphaherpesvirus 2) of the same compound?
A: The IC50 was over 25 µM.

Q: For `O=C1Nc2ccccc2/C1=N/NC(=S)N1CCCCC1`, which CC50 [1] is on record?
A: Its CC50 is over 25 µM.

Q: What about the IC50 (Human alphaherpesvirus 1) of the same compound?
A: Its IC50 is over 25 µM.

Q: And the IC50 (Human alphaherpesvirus 2)?
A: The IC50 was 3.14 µM.

Q: Which results are given for `O=C1Nc2ccc(F)cc2/C1=N/NC(=S)Nc1ccccc1`?
A: CC50 [1]: > 25 µM; IC50 (Human alphaherpesvirus 1): > 25 µM; IC50 (Human alphaherpesvirus 2): > 25 µM

Q: Which results are given for `Cc1ccc(NC(=S)N/N=C2\C(=O)Nc3ccccc32)cc1`?
A: CC50 [1]: > 25 µM; IC50 (Human alphaherpesvirus 1): > 25 µM; IC50 (Human alphaherpesvirus 2): > 25 µM

Q: Which CC50 [1] does the source give for `O=C1Nc2ccccc2/C1=N/NC(=S)Nc1ccc(N2CCOCC2)cc1` here?
A: The CC50 was over 25 µM.

Q: And the IC50 (Human alphaherpesvirus 1)?
A: Its IC50 is over 25 µM.

Q: What about the IC50 (Human alphaherpesvirus 2) of the same compound?
A: Its IC50 is over 25 µM.

Q: For `COc1ccccc1NC(=S)N/N=C1\C(=O)Nc2ccccc21`, which CC50 [1] is on record?
A: Its CC50 is over 25 µM.

Q: And the IC50 (Human alphaherpesvirus 1)?
A: The IC50 was over 25 µM.

Q: And the IC50 (Human alphaherpesvirus 2)?
A: The IC50 was over 25 µM.

Q: For `COc1cccc(NC(=S)N/N=C2\C(=O)Nc3ccccc32)c1`, which CC50 [1] is on record?
A: Its CC50 is over 25 µM.

Q: What about the IC50 (Human alphaherpesvirus 1) of the same compound?
A: The IC50 was 2.64 µM.

Q: What about the IC50 (Human alphaherpesvirus 2) of the same compound?
A: The IC50 was over 25 µM.

Q: With `CNC(=S)N/N=C1\C(=O)Nc2ccccc21` as the compound, how does the CC50 [1] read?
A: Its CC50 is over 25 µM.

Q: What about the IC50 (Human alphaherpesvirus 1) of the same compound?
A: The IC50 was over 25 µM.

Q: And the IC50 (Human alphaherpesvirus 2)?
A: Its IC50 is over 25 µM.

Q: For `O=C1/C(=N\NC(=S)Nc2ccccc2)c2ccccc2N1c1ccccc1`, which CC50 [1] is on record?
A: Its CC50 is over 25 µM.

Q: And the IC50 (Human alphaherpesvirus 1)?
A: The IC50 was over 25 µM.

Q: And the IC50 (Human alphaherpesvirus 2)?
A: Its IC50 is over 25 µM.

Q: With `Cc1ccccc1NC(=S)N/N=C1\C(=O)Nc2ccccc21` as the compound, how does the CC50 [1] read?
A: Its CC50 is over 25 µM.

Q: What about the IC50 (Human alphaherpesvirus 1) of the same compound?
A: Its IC50 is over 25 µM.

Q: What about the IC50 (Human alphaherpesvirus 2) of the same compound?
A: Its IC50 is over 25 µM.

Q: With `O=C1Nc2ccccc2/C1=N/NC(=S)Nc1ccc(Br)cc1` as the compound, how does the CC50 [1] read?
A: The CC50 was over 25 µM.

Q: What about the IC50 (Human alphaherpesvirus 1) of the same compound?
A: The IC50 was 3.29 µM.

Q: And the IC50 (Human alphaherpesvirus 2)?
A: Its IC50 is over 25 µM.

Q: For `CCCNC(=S)N/N=C1\C(=O)Nc2ccccc21`, which CC50 [1] is on record?
A: The CC50 was over 25 µM.

Q: And the IC50 (Human alphaherpesvirus 1)?
A: Its IC50 is over 25 µM.

Q: What about the IC50 (Human alphaherpesvirus 2) of the same compound?
A: The IC50 was over 25 µM.

Q: Which CC50 [1] does the source give for `O=C1Nc2ccc(OC(F)(F)F)cc2/C1=N/NC(=S)Nc1ccccc1` here?
A: The CC50 was over 25 µM.

Q: And the IC50 (Human alphaherpesvirus 1)?
A: Its IC50 is 5.9 µM.

Q: And the IC50 (Human alphaherpesvirus 2)?
A: Its IC50 is over 25 µM.

Q: Which CC50 [1] does the source give for `O=C1Nc2ccc(Br)cc2/C1=N/NC(=S)Nc1ccccc1` here?
A: Its CC50 is over 25 µM.

Q: What about the IC50 (Human alphaherpesvirus 1) of the same compound?
A: The IC50 was over 25 µM.

Q: What about the IC50 (Human alphaherpesvirus 2) of the same compound?
A: The IC50 was over 25 µM.
